Source: PubChem BioAssay AID2305 (GlaxoSmithKline (GSK), 2010)
Where “and” joins values, the source holds several entries; their conditions need not be identical. Identical values can stand only once.

What follows are molecules tested on P. falciparum 3D7 growth, pLDH absorbance (assay: P. falciparum 3D7 growth inhibition, dose response, strain 3D7 (AID 2305)).
CCNc1cc(C(=O)N[C@@H](Cc2ccccc2)[C@H](O)CNC2(Cc3cccc(Cl)c3)CCC2)cc(N2CCCCS2(=O)=O)c1 was tested, and the IC50 was 1180 nM. In the case of O=C(/C=C/c1ccc(Cl)c(Cl)c1)NC1CCC(CN2CCC(c3c[nH]c4cc(C(F)(F)F)ccc34)CC2)CC1 (centres undefined), the IC50 is reported as 900 nM and 280 nM. CN1CCC(N(Cc2ccc(-c3ccc(C(F)(F)F)cc3)cc2)C(=O)Cn2cc(Cc3cnn(C)c3)c(=O)nc2SCc2cccc(F)c2F)CC1 showed an IC50 of 930 nM. Molecule CCn1c(-c2nonc2N)nc2cnc(Oc3cccc(NC(=O)c4ccc(OCCN(C(C)C)C(C)C)cc4)c3)cc21 has an IC50 of 780 nM. With COc1ccc(C[C@@H](C)NC[C@H](O)c2cccc(Cl)c2)cc1F the IC50 was 870 nM. Cc1cccc2[nH]c(-c3cccc(-c4ccc(NC(=O)Nc5ccc(Cl)c(Cl)c5)cc4)c3)nc12 was tested, and the IC50 was 570 nM. Molecule O=C(c1ccc(Br)o1)N1N=C(c2cccs2)CC1c1ccc(Br)cc1 (centres undefined) has an IC50 of 510 nM. In the case of COC(=O)COc1cc(C(=O)NCCCCN2CCC(c3ccc4c(c3OC)CCCC4)CC2)ccc1-c1ccc(Cl)cc1, the IC50 is reported as 260 nM. CC(=O)Nc1cccc(C(=O)Nc2ccc(-c3cccc(-c4nc5c(C)cccc5[nH]4)c3)cc2)c1 showed an IC50 of 790 nM. COc1cc(-c2nc(-c3ccccc3)c(-c3ccccc3)[nH]2)ccc1OCCN(C)C gave an IC50 of 300 nM. With CN(CCCN(C)c1cc(NC(=O)c2cccc(F)c2)ccn1)Cc1cccc(O)c1 the IC50 was 1920 nM. With Cc1noc(C)c1-c1ccc2c(Nc3ccccc3C(C)(C)C)c(C(=O)NCc3cccc4ccccc34)cnc2c1 the IC50 was 940 nM. O=C(Nc1cccc(-c2ccc(CN3CCCC3)cc2)c1)c1cccc(Cl)c1 was tested, and the IC50 was 430 nM. CCCCCCCNc1cc(C)nc2ccc(OC)cc12 gave an IC50 of 670 nM. Molecule CN(C)CCNCc1cccc(-c2ccc3c(Nc4cc(O)c(Cl)cc4F)ccnc3c2)c1 has an IC50 of 550 nM. With Cc1oc(-c2ccc(Cl)cc2)cc1C(=O)NCCC1CCN(CCCCCNC(=O)/C=C/c2ccc(Cl)c(Cl)c2)CC1 the IC50 was 450 nM. With O=C(NCCCCN1CCCC2c3ccc(O)cc3CCC21)c1ccc(-c2ccccc2)cc1 (centres undefined) the IC50 was 730 nM and 940 nM. With CC(C)C[C@H](Nc1ccnc(NCC2CCCCC2)n1)C(=O)NCCOc1ccccc1 the IC50 was 1020 nM. CCCNC(=O)c1cncc(-c2ccc(CNC3Cc4ccccc4C3)cc2)c1 showed an IC50 of 850 nM. Cc1cc(N[C@@H](CC(C)C)C(=O)NC2CCCC2)nc(NCC2CCCCC2)n1 showed an IC50 of 860 nM. CC[C@H](C)CNC(=O)c1cncc(-c2ccc(CNCC3CNCCCO3)cc2)c1 (some centres undefined) gave an IC50 of 1020 nM. Molecule Cc1nc(N)nc(N)c1-c1cc(Cl)c(N)c(Cl)c1 has an IC50 of 800 nM. With Cc1ccc(Cn2nc(N3CCNCC3)ccc2=O)cc1NC(=O)Nc1ccc(-c2ccccc2)cc1 the IC50 was 840 nM. CCNc1cc(C(=O)N[C@@H](Cc2ccccc2)[C@H](O)CNCc2cccc(-c3cncnc3)c2)cc(N2CCCC2=O)c1 showed an IC50 of 660 nM. Molecule CC(C)C1C(O)=C(c2ccc3ccccc3c2)C(=O)N1Cc1cccc(F)c1 (centres undefined) has an IC50 of 810 nM. In the case of CSc1nccc(-c2ccc3ccnc(N)c3c2)n1, the IC50 is reported as 920 nM. For c1cncc(Oc2ccc(Nc3ccnc4cc(-c5cccc(CNCCN6CCOCC6)c5)ccc34)cc2)c1, the IC50 was 110 nM. Cc1cc(N(C)CCCN(C)C)nc(Nc2ccc(Br)cc2)n1 was tested, and the IC50 was 640 nM. Work on COc1cc2nc(N3CCC(CNC(=O)c4ccc(NC(=O)c5ccc(Cl)cc5)cc4)CC3)nc(N)c2cc1OC yielded an IC50 of 260 nM. Molecule COc1cc(OC)c(OC)cc1CN1CCC2(CC1)CN(Cc1ccc(Cl)c(Cl)c1)C(=O)O2 has an IC50 of 810 nM. In the case of O=C(Nc1cccc(CN2CCCN(Cc3cccnc3)CC2)c1)c1ccc(Cl)c(Cl)c1, the IC50 is reported as 930 nM. Cc1ccc(C)c(Sc2ccc(NC(=O)CN3CCN(C(=O)c4ccco4)CC3)cc2)c1 was tested, and the IC50 was 720 nM. With CCOc1ccnc(=O)[nH]1 the IC50 was 460 nM. For O=C(Nc1ccc(Br)cc1)N(CCN1CCOCC1)CC(O)COc1ccc(Cl)c(F)c1 (centres undefined), the IC50 was 1040 nM. NCc1cccc(-c2ccccc2CNC2CCN(Cc3ccccc3)CC2)c1 was tested, and the IC50 was 770 nM. COc1cc(Nc2ccnc3ccc(C(F)(F)F)cc23)cc(OC)c1OC gave an IC50 of 700 nM. Molecule NCC1CCCN1Cc1ccc(-c2ccc(-c3nc4ccc(C(F)(F)F)cc4[nH]3)cc2)cc1 (centres undefined) has an IC50 of 960 nM. Cc1cccc2[nH]c(-c3ccc(-c4cccc(NC(=O)C(C)CN5CCN(C)CC5)c4)cc3)nc12 (centres undefined) was tested, and the IC50 was 740 nM. CC(=O)c1ccc(NC(=O)CSc2nc(-c3ccccc3Cl)ns2)cc1 was tested, and the IC50 was 1130 nM. With CC(C)C[C@H]1C(=O)N[C@H](C2Cc3ccccc3C2)C(=O)N1[C@@H](C(=O)Nc1ccccc1OCc1ccccc1)c1ccc(F)cc1F the IC50 was 1020 nM. For COc1ccc(C[C@@H](N)C(=O)N[C@H]2[C@@H](O)[C@H](n3cnc4c(N(C)C)ncnc43)O[C@@H]2CO)cc1, the IC50 was 170 nM. With Cc1cc(F)ccc1Nc1nc(N(C)c2ccccc2)c2cc(OCCCN(C)C)ccc2n1 the IC50 was 720 nM. COc1cc(NC(=O)c2ccc(-c3ccccc3)cc2)ccc1OCCCN1CCC(c2ccccc2)CC1 showed an IC50 of 750 nM. Work on CCN(CC)c1ccc(NC(=S)NC2CCN(CCCCCNC(=O)/C=C/c3ccc(Cl)c(Cl)c3)CC2)cc1 yielded an IC50 of 880 nM. NC(N)=Nc1nc(-c2ccc(NC(=O)Nc3cccc(-c4csc(N=C(N)N)n4)c3)cc2)cs1 was tested, and the IC50 was 1010 nM. O=C(Nc1cccc(CN2CCCN(Cc3ccc(O)cc3)CC2)c1)c1cc2ccccc2o1 gave an IC50 of 1200 nM. O=C1CCCN1CCCNCc1ccc(-c2cccc(-c3nc4ccc(C(F)(F)F)cc4[nH]3)c2)cc1 gave an IC50 of 190 nM. With Cc1cccc2[nH]c(-c3ccc(-c4cccc(CN5CCC(CO)CC5)c4)s3)nc12 the IC50 was 940 nM. Molecule O=C(Nc1cccc(-c2cccc(-c3nc4ccc(F)cc4[nH]3)c2)c1)c1csnn1 has an IC50 of 790 nM. With COc1ccc2ncc(F)c([C@H](O)CN3CCC(NCc4ccc5c(c4)NC(=O)CO5)CC3)c2c1 the IC50 was 170 nM. C=C[C@H]1CN2CC[C@H]1C[C@H]2[C@H](O)c1cc(/C=C/c2ccc(F)cc2)nc2ccc(OC)cc12 was tested, and the IC50 was 30 nM. With O=C(/C=C/c1ccc(Cl)c(Cl)c1)NCCCCCN1CCC(NC(=O)c2ccc(F)cc2)CC1 the IC50 was 710 nM. COc1ccc(Nc2ncc3c(-c4cccc(NC(=O)Cc5ccc(F)cc5)c4)c[nH]c3n2)cc1OC was tested, and the IC50 was 590 nM. Fc1cc(Cl)ccc1Nc1ccnc(Nc2ccc3cn[nH]c3c2)n1 showed an IC50 of 740 nM. In the case of O=C(NC1CCC(CN2CCC(c3c[nH]c4ccccc34)CC2)CC1)c1cc(-c2ccc(F)cc2F)ccc1O (centres undefined), the IC50 is reported as 360 nM. Work on CCn1cc(-c2cc(C(=O)Nc3ccc(OC)cc3C)c3ccccc3n2)c(C)n1 yielded an IC50 of 980 nM. COC(=O)c1cccc(CNCc2ccc(-c3ccc(-c4nc5ccc(C(F)(F)F)cc5[nH]4)s3)cc2)c1 showed an IC50 of 160 nM. Molecule Cc1nc(-c2ccccc2)nc(N2CCN(C(=O)c3ccco3)CC2)c1Cc1ccccc1F has an IC50 of 930 nM. With COc1ccc(NC(=O)Nc2ccc(-c3ccncc3)c(Cl)c2)cc1N1CCN(C)CC1 the IC50 was 760 nM. For O=C(c1ccccc1)N(Cc1ccccc1-c1ccc(CNCCc2ccccc2)cc1)C1CCN(Cc2ccccc2)CC1, the IC50 was 990 nM. With COc1ccccc1C1CCN(CCCCNC(=O)c2ccc(/C=C/c3cc(Cl)cc(Cl)c3)cc2)CC1 the IC50 was 720 nM. With O=S(=O)(NCCN1CCCC1)c1cccc(-c2cccc(CNCCc3cccs3)c2)c1 the IC50 was 750 nM. Cc1ccc(NC(=O)c2ccc3ncccc3c2)cc1OC1CCN(C(C)C)C1 (centres undefined) gave an IC50 of 990 nM. For O=C(Nc1ccccc1OC(F)(F)F)NC1CCC(CN2CCC(c3c[nH]c4ccccc34)CC2)CC1 (centres undefined), the IC50 was 370 nM and 800 nM. COc1ccc(-c2ccc(NC(=O)c3cccc(Cl)c3)c(F)c2)cc1CN1CCCN(C)CC1 showed an IC50 of 680 nM. In the case of Cc1ccc(C(=O)NC2CCN(CCNC(=O)Nc3cc(C)nc4ccccc34)CC2)cc1, the IC50 is reported as 490 nM. N#Cc1cccc(/C=C/C(=O)NC2CCC(CCN3CCc4ccc(-c5cnccn5)cc4CC3)CC2)c1 (centres undefined) showed an IC50 of 770 nM. For CC(C)CCNc1nc(NCCc2ccccc2)c2cc(O)ccc2n1, the IC50 was 240 nM. For CCNc1cc(C(=O)N[C@@H](Cc2ccccc2)[C@H](O)CN[C@@H](C)c2ccccc2)cc(N2CCCC2=O)c1, the IC50 was 670 nM. Cc1cc(NN=Cc2ccccn2)c2cc(F)ccc2n1 was tested, and the IC50 was 760 nM. In the case of Cc1cc(C(=O)Nc2ccc(C)c(-c3nc(N(C(=O)c4ccc(F)c(C)c4)C4CCNCC4)nc4c3ccc(=O)n4-c3c(F)cccc3F)c2)ccc1F, the IC50 is reported as 320 nM. COc1ccc(N2CCN(CCCCNC(=O)c3ccc(/C=C/c4ccc(Cl)c(Cl)c4)cc3)CC2)c(OC)c1 was tested, and the IC50 was 710 nM. For COc1ccccc1-n1c(-c2ccc3ccccc3c2)csc1=NC(=O)c1ccccc1, the IC50 was 200 nM. In the case of Cc1cccc(C(=O)NC(NC(=S)Nc2cc(Cl)ccc2Cl)C(Cl)(Cl)Cl)c1 (centres undefined), the IC50 is reported as 1270 nM. For COc1ccc(Nc2ncc3c(-c4cccc(NC(=O)Cc5cccnc5)c4)c[nH]c3n2)cc1OC, the IC50 was 720 nM. CCOc1ccc2nc(N(CCCn3ccnc3)C(=O)C=Cc3cccs3)sc2c1 was tested, and the IC50 was 780 nM. With Cc1ccc(Cc2cccc3nc(N)nc(N)c23)cc1 the IC50 was 1150 nM. CC(=O)CC(=O)N1CCN(c2ccccc2)CC1 showed an IC50 of 1060 nM. N#Cc1cccc(C(=O)Nc2cccc(-c3cccc(CN4CCNCC4)c3)c2)c1 showed an IC50 of 950 nM. With COc1ccc2ccc(F)c(CC(=O)N3CCOC(CNCc4cccc(-c5ccc(F)cc5)n4)C3)c2n1 (centres undefined) the IC50 was 1010 nM. Work on CN(C)CCOc1cc(NC(=O)Nc2ccc(Cl)cc2C(F)(F)F)ccc1I yielded an IC50 of 930 nM. With CC(C)N1CCC(N(Cc2ccc(-c3ccc(C(F)(F)F)cc3)cc2)C(=O)Cn2c(CCc3cccc(F)c3F)cc(=O)c3cn(C)nc32)CC1 the IC50 was 1170 nM. Molecule COC(=O)c1ccc(CC(C)NCC(O)c2cc(Cl)c(N)c(Cl)c2)cc1 (centres undefined) has an IC50 of 880 nM. COc1ccc2nccc([C@@H](O)CN3CCC(NCc4nc5ccccc5[nH]4)CC3)c2c1 was tested, and the IC50 was 1070 nM. Work on CCN(CC)CCN(Cc1ccc(-c2ccc(C(F)(F)F)cc2)cc1)C(=O)Cn1c(CCc2ccc(F)cc2)nc(=O)c2ccccc21 yielded an IC50 of 1070 nM. C[C@@H](CNc1ccnc(Nc2ccc3[nH]c(=O)[nH]c3c2)n1)c1ccccc1 gave an IC50 of 1100 nM. In the case of Fc1ccccc1-c1cc(Nc2ccncc2)nc(-c2cccnc2)n1, the IC50 is reported as 260 nM. With COc1ccc2nccc(NN=Cc3ccc(F)cc3)c2c1 the IC50 was 720 nM. O=C(Cn1c(CCc2cccc(F)c2F)nc(=O)c2ccccc21)N(CCN1CCCCC1)Cc1ccc(-c2ccc(C(F)(F)F)cc2)cc1 gave an IC50 of 760 nM. In the case of CC1CCCN(Cc2cc(Cl)cc(Cl)c2O)C1 (centres undefined), the IC50 is reported as 930 nM. CNc1nc(NN=Cc2ccccc2Cl)nc(Nc2cccc(C(F)(F)F)c2)n1 was tested, and the IC50 was 920 nM. In the case of COc1cc2nc(N3CCC(c4ccccc4)CC3)nc(NCc3ccc(=O)[nH]c3)c2cc1OC, the IC50 is reported as 750 nM. Cc1[nH]c(C)c(-c2ccc(-c3cccc(Cl)c3)nc2)c(=O)c1Br was tested, and the IC50 was 320 nM. O=C(Cc1cccc(O)c1)Nc1ccc(-c2cccc(-c3nc4ccc(C(F)(F)F)cc4[nH]3)c2)cc1 was tested, and the IC50 was 980 nM.
